The values that follow come from patent US20250034216A1, “STEREOSELECTIVE COVALENT LIGANDS FOR ONCOGENIC AND IMMUNOLOGICAL PROTEINS” (The Scripps Research Institute, priority 2021, published 2025).

The target of assay [1] is T1, SF3B1 (~150 kDa protein) (Homo sapiens, UniProt O75533+Q7RTV0).
T1 construct: Cysteine engagement data from 22Rv1 cells treated; endogenous in cells; host or cells: 22Rv1
Nature of the assay: Gel-based ABPP for SF3B1 cysteine engagement. The format is binding. Particulars: 22Rv1 cells, 24 h pre-treatment (1 μM WX-02-23/WX-02-43, 10 nM pladienolide B). The method, then:
22Rv1 cells were treated with indicated compounds for 24 h, chased with click probe for 1 h in situ, harvested and lysed in PBS with protease inhibitors (cOmplete), and then normalized to 2.0 mg/mL. Reagents for the CuAAC click reaction were pre-mixed prior to addition to the samples (3 μL of click reaction mix for 25 μL of lysate). After 1 hour of click labeling, 4×SDS running buffer was added to samples, which were then analyzed by SDS-PAGE.

Assay [2] addresses T2, SF3B1 C1111 (Homo sapiens, UniProt O75533+Q7RTV0).
T2 construct: Cysteine engagement data from 22Rv1 cells treated; endogenous in cells; host or cells: 22Rv1
As to the kind of experiment: Parallel reaction monitoring of IA-DTB labeled SF3B1 peptides. Type of assay: binding. Particulars: 22Rv1 cells. Here is the method: Dry peptide samples were reconstituted in a water/acetonitrile (85:15) mixture containing 0.1% formic acid (100 μl) and 15 μl was injected on to an EASY-Spray C18 loading column (5 μm particle size, 100 μm×2 cm; Fisher Scientific, DX164564) and resolved on a custom analytical column (2 μM particle size, 75 μm×15 cm) using a Dionex Ultimate 3000 nano-LC (Thermo Fisher Scientific). Peptides were separated over a 60-min gradient of 15 to 33% acetonitrile (0.1% formic acid) and analyzed on a Q-Exactive instrument (Thermo Fisher Scientific) using a parallel reaction monitoring method targeting the SF3B1 peptide containing C1111 (amino acids 1110-1149, missed tryptic, +3 charge state). Selected precursor ions were isolated and fragmented by high-energy collision dissociation and fragments were detected in the Orbitrap at 17,500 resolution.
Raw data files were uploaded analyzed in Skyline (v.21.1.0.278) to determine the abundance of each peptide in vehicle-treated samples relative to inhibitor-treated samples. Peptide quantification was performed by calculating the sum of the peak areas corresponding to six fragment ions from each peptide. The peptides and fragment ions were preselected from in-house reference spectral libraries acquired in data-dependent acquisition mode to identify authentic spectra for each peptide.

Assay [3] deals with T3, recombinant FLAG-PSME1 WT or C22A (Homo sapiens, UniProt Q06323).
T3 construct: FLAG; expressed in transfected cells; host or cells: 22Rv1 pLenti3.3/TR (tetracycline-induced)
T3 sequence (Q06323 whole entry, stated change not applied): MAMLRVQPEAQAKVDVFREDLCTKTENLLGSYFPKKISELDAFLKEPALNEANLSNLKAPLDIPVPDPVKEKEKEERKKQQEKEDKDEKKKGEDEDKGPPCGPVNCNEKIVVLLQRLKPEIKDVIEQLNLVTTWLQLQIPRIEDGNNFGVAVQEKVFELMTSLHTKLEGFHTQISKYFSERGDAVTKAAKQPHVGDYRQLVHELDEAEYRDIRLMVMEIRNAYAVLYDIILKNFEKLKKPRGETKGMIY
Nature of the assay: SEC analysis by western blot. Type of assay: cell-based. The conditions noted are these: 22Rv1 cells expressing FLAG-PSME1 WT, 10 μM, 3 h. The method, then:
(§1) For experiments using transiently overexpressed constructs (FLAG-PSME1 WT/C22A, HA-ACAT1 WT/C126A), Stable clonal 22Rv1 pLenti3.3/TR were transfected using polyethylenimine and treated with tetracycline ([…]) for 48 h prior to treatment with electrophilic probes.
(§2) Cells were lysed and fractioned by SEC. After acetone precipitation and resuspension, 4× gel loading buffer was added to eluates, and proteins were resolved using SDS-PAGE (4-20% acrylamide, Tris-glycine gel), and transferred to a nitrocellulose membrane. The membrane was blocked with 5% milk in Tris-buffered saline (20 mM Tris-HCl 7.6, 150 mM NaCl) with 0.1% tween (TBST) and incubated with primary antibody overnight. After TBST wash (3 times), the membrane was incubated with secondary antibody, washed with TBST again, developed with ECL western blotting detection reagents, and recorded on a Bio-Rad ChemiDoc MP. Relative band intensities were analyzed using ImageJ.
(In general: Size exclusion chromatography separates by hydrodynamic size, large species first.)

Assay [4] deals with T4, recombinant FLAG-PSME1 WT or C22A (Homo sapiens, UniProt Q06323, C22A).
T4 construct: FLAG; expressed in transfected cells; host or cells: 22Rv1 pLenti3.3/TR (tetracycline-induced)
T4 sequence (Q06323 whole entry C22A): as the sequence (Q06323 whole entry, stated change not applied) above, with C22A counted along it
Nature of the assay: SEC analysis by western blot. Particulars: 22Rv1 cells expressing FLAG-PSME1 C22A, 10 μM, 3 h. Type of assay: cell-based. Here is the method:
as §1, §2

T2 sequence (O75533 whole entry): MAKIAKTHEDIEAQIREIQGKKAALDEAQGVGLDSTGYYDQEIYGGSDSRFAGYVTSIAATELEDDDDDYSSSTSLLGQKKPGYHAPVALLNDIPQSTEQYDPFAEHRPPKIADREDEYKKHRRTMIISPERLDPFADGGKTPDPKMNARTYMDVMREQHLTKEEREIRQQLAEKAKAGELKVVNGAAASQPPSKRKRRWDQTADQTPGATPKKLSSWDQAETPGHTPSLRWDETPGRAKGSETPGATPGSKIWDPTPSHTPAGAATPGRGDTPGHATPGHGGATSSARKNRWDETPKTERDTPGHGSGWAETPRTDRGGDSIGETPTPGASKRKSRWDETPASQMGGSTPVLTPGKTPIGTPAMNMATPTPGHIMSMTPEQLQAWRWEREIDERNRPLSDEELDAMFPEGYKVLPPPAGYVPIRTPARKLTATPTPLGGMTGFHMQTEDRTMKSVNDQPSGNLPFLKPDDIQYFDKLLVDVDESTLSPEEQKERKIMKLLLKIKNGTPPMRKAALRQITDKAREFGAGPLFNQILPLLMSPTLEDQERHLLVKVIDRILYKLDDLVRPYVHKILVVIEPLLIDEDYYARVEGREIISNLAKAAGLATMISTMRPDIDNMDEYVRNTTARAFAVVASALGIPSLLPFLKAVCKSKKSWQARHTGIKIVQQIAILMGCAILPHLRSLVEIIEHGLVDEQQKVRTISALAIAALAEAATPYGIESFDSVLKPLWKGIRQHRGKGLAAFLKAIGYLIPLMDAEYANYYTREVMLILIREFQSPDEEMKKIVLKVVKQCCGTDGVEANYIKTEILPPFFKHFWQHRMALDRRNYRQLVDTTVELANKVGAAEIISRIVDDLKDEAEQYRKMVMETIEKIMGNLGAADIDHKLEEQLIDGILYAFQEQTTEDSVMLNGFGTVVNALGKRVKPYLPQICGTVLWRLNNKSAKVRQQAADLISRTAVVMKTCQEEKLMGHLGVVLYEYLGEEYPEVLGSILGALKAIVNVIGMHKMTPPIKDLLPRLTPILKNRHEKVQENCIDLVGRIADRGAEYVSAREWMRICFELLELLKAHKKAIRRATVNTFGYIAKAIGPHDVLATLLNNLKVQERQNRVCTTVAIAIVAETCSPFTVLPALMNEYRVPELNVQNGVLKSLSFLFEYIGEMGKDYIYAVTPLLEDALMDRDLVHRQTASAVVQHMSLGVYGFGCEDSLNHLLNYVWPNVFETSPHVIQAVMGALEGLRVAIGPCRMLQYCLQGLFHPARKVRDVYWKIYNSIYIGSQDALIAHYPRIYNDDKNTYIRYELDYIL
T2 sequence (Q7RTV0 whole entry): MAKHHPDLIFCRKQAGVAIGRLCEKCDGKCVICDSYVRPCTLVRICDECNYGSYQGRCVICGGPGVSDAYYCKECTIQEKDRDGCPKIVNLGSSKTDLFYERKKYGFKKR
T2 sequence (Q15393 whole entry partner): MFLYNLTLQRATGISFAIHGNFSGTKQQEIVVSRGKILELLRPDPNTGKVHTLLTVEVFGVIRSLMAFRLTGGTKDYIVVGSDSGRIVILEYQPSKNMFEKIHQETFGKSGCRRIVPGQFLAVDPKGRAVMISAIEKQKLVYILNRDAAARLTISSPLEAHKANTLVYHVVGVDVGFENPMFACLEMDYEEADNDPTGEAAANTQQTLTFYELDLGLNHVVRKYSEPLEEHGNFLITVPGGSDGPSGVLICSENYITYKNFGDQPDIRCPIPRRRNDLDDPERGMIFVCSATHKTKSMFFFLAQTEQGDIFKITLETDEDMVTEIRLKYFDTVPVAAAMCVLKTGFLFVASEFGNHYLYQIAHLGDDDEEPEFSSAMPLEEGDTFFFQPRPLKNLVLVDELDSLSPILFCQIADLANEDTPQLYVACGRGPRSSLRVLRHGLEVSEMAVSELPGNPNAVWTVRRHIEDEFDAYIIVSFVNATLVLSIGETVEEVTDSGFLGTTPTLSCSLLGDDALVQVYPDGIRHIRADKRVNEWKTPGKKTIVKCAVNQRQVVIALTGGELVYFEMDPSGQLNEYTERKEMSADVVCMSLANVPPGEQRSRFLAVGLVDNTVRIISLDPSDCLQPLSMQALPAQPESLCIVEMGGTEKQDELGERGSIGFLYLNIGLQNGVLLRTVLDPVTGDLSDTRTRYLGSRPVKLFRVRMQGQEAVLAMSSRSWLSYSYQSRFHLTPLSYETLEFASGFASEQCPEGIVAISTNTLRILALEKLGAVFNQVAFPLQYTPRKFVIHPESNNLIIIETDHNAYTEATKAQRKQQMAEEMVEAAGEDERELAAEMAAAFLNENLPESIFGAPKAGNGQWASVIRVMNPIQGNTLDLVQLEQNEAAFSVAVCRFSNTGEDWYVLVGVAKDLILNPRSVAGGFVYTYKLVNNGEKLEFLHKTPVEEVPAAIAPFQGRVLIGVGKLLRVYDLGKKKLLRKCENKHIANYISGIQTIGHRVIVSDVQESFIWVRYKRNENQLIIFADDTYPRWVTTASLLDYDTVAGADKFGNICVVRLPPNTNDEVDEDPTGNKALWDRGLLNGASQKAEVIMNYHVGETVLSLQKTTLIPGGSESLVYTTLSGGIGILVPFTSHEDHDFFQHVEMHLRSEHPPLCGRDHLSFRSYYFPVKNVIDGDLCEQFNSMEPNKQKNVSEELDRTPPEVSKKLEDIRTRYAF
T2 sequence (Q9BWJ5 whole entry partner): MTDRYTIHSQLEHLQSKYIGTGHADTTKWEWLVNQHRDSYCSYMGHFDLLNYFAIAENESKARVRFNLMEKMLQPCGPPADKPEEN
T1 sequence (O75533 whole entry): as the sequence (O75533 whole entry) above
T1 sequence (Q7RTV0 whole entry): as the sequence (Q7RTV0 whole entry) above
T1 sequence (Q15393 whole entry partner): as the sequence (Q15393 whole entry partner) above
T1 sequence (Q9BWJ5 whole entry partner): as the sequence (Q9BWJ5 whole entry partner) above

As for `C=CC(=O)N1[C@H](c2ccc3c(c2)OCO3)c2[nH]c3ccccc3c2C[C@H]1C(=O)N1CCOCC1` [WX-02-23, 1-((1R,3S)-1-(benzo[d][1,3]dioxol-S-yl)-3-(morpholine-4-carbonyl)-1,3,4,9-tetrahydro-2H-pyrido [3,4-b]indol-2-yl)prop-2-en-1-one], in assay [1], the “blockade of WX-01-10 labeling of the 150 kDa protein” value was “blocked”. For the same compound, the “IA-DTB labeling of other cysteines in SF3B1” value in assay [2] is given as “did not affect other cysteines in SF3B1”. Besides, the “IA-DTB reaction with SF3B1 C1111” value in assay [2] (20 μM, 24 h) was “stereoselectively blocked”.

Regarding `C=CC(=O)N1C[C@H](c2ccc(Br)cc2)[C@@H]1C(=O)Nc1cccc2cccnc12` [MY-1B, (2R,3S)-1-acryloyl-3-(4-bromophenyl)-N-(quinolin-8-yl)azetidine-2-carboxamide], the “SEC size shift of recombinant WT-PSME1” value in assay [3] was “clear size shift”. Also, the “SEC size shift of recombinant PSME1 C22A mutant” value in assay [4] is “unaffected”.
